Results published in patent publication US10899754B2, “Modulators of indoleamine 2,3-dioxygenase” (GLAXOSMITHKLINE INTELLECTUAL PROPERTY DEVELOPMENT LIMITED, priority 2016, dated 2021).
Where two headings read alike, the source gives them in different places.

Columns and labels:
[1] = system: human epithelial HeLa cells; assay: HeLa cytotoxicity assay (CellTiter-Glo); format: cell-based; conditions: pCC50
Outline: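 Read-out is CellTiter-Glo luminescence after 2 days at 37 °C, on IFN-γ-stimulated (10 nM) HeLa cells seeded at 5,000/well with compounds in 11-point 3-fold dose series. pCC50 from four-parameter curve fit; wells without cells set 100% cytotoxicity, stimulated cells with DMSO set 0%.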

[2] = molecular target: indoleamine 2, 3-dioxygenase (IDO1) (Homo sapiens, UniProt P14902); assay: IDO1 HeLa RapidFire MS assay (kynurenine detection by mass spectrometry); format: cell-based; parameters: to induce the expression of indoleamine 2, 3-dioxygenase (IDO1); conditions: HeLa cells, pIC50, read-out: IDO1_HELA_PXC50 (converted)
indoleamine 2, 3-dioxygenase (IDO1), sequence (P14902 whole entry): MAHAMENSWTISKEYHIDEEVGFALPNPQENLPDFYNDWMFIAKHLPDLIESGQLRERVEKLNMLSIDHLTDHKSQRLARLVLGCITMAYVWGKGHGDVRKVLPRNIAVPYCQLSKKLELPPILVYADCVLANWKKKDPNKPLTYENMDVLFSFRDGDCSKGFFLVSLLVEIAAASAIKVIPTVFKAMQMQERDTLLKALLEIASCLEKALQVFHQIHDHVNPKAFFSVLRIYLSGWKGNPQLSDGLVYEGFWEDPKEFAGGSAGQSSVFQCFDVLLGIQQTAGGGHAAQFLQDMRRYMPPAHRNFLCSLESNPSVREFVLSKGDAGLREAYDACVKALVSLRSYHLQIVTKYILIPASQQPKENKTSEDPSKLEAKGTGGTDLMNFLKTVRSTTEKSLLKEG
Outline: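 Compound potency reported as pIC50 from kynurenine/internal-standard ratio (RapidFire MS) in supernatant of IFN-γ-induced (10 nM) HeLa cells, 5,000 per well, after 2 days' treatment with 11-point dilutions. Cytotoxicity in the same format by luminescent ATP detection, reported as pCC50.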

[3] = Toxicokinetics in Beagle dogs, 7 day repeat oral administration; format: in vivo; conditions: 20 mg/kg PO BID; for Therapeutic Index AUC (0-12 hr): versus predicted human efficacious AUC 0.376 μg * hr/mL; for Therapeutic Index Cmax: versus predicted human efficacious Cmax 0.078 μg/mL; for Cmax / AUC(0-t): Beagle, dog, po, 20 mg/kg; for Cmax / AUC(0-t) / Tmax: plasma; for AUC(0-t): Subject 1, read-out: AUC (0-12 hr)
Source text: (§1) To understand its toxicokinetics and potential effect on hepatic functions, EXAMPLE 23 was orally dosed to Beagle dogs for 7 consecutive days.

[4] = Tolerability, body weight and hepatic functions in Beagle dogs, 7 day repeat oral administration; format: in vivo; conditions: Beagle dog, 20 mg/kg PO BID for 7 days
Procedure: FIG. 1 is daily body weights of Beagle dogs during the study of example 23, 20 mg/kg PO BID dose.
FIG. 2 is daily hepatic enzyme levels of Beagle dogs during the study: ALT (alanine aminotransferase), AST (aspartate aminotransferase), ALP (alkaline phosphatase) and T-Bil (total bilirubin) for example 23, 20 mg/kg PO BID dose.
as §1

CC(C)CN(c1ccc([C@H](C)CC(=O)O)cc1Nc1nc(C(F)(F)F)ns1)C1CCOCC1 [Example 20, (R)-3-(4-(Isobutyl(tetrahydro-2H-pyran-4-yl)amino)-3-((3-(trifluoromethyl)-1,2,4-thiadiazol-5-yl)amino)phenyl)butanoic Acid]
HELA_IDO1_TOX_PXC50 [1]: <5 | IC50 [2]: 2.51 nM

CC(C)CN(c1ccc([C@H](C)CC(=O)O)cc1Nc1nnc(C2CC2)s1)C1CCOCC1 [Example 23, (R)-3-(3-((5-cyclopropyl-1,3,4-thiadiazol-2-yl)amino)-4-(isobutyl (tetrahydro-2H-pyran-4-yl)amino)phenyl)butanoic Acid]
Therapeutic Index AUC (0-12 hr) ([3]; Beagle dog, Day1, Female): 4 | Therapeutic Index Cmax ([3]; Beagle dog, Day1, Female): 13 | Therapeutic Index AUC (0-12 hr) ([3]; Beagle dog, Day1, Male): 14 | Therapeutic Index Cmax ([3]; Beagle dog, Day1, Male): 31 | Therapeutic Index AUC (0-12 hr) ([3]; Beagle dog, Day7, Female): 10 | Therapeutic Index Cmax ([3]; Beagle dog, Day7, Female): 50 | Therapeutic Index AUC (0-12 hr) ([3]; Beagle dog, Day7, Male): 40 | Therapeutic Index Cmax ([3]; Beagle dog, Day7, Male): 81 | Therapeutic coverage in AUC0-12 for the predicted human efficacious dose ([3]; Beagle dog, Day 7, average): ~25 fold | Therapeutic coverage in Cmax for the predicted human efficacious dose ([3]; Beagle dog, Day 7, average): ~66 fold | Time quantifiable in plasma post the start of the oral dose ([3]; Beagle dog, Days 1 and 7): up to 24 hours | Increase in systemic exposures (Cmax and AUC0-12 values) on Day 7 in comparison to Day 1 ([3]; Beagle dog, both dogs): ~3 fold | Cmax ([3]; female, Day1, Female, Subject 1): 1000 ng/mL | AUC(0-t) ([3]; female, Day1, Female): 1500 ng·h/mL | Cmax ([3]; female, Day7, Female, Subject 1): 3900 ng/mL | AUC(0-t) ([3]; female, Day7, Female): 3800 ng·h/mL | Cmax ([3]; male, Day1, Male, Subject 1): 2400 ng/mL | AUC(0-t) ([3]; male, Day1, Male): 5100 ng·h/mL | Cmax ([3]; male, Day7, Male, Subject 1): 6300 ng/mL | AUC(0-t) ([3]; male, Day7, Male): 14900 ng·h/mL | Tmax ([3]; Beagle dog, Day1, Male, Subject 1): 30 min | Tmax ([3]; Beagle dog, Day7, Female, Subject 1): 30 min | Tmax ([3]; Beagle dog, post dose on Days 1 and 7): 30 min | Clinical observations [4]: no clinical observations were made | Tolerability throughout the study [4]: well tolerated | Hepatic functions measured by serum ALT, AST, ALP and T-Bil levels ([4]; FIG. 2): in the normal variable ranges | Body weights ([4]; male and female, FIG. 1): constant | HELA_IDO1_TOX_PXC50 [1]: <5 | IC50 [2]: 3.98 nM
